According to patent publication US11596939B2, “Lamp component distribution in a microfluid cell” (priority 2017, dated 2023):

Tests used:
[1] = system: LAMP reaction; assay: ProClin950 in BlisterBuffer, effect on LAMP reaction; format: biochemical; details: added to BlisterBuffer
Text: Additionally, we added ProClin950 a biozide to the BlisterBuffer in order to inhibit microbial growth.

[2] = system: target DNA; assay: Sample pre-treatment with antimicrobial peptides before isothermal amplification; details: sample pre-treatment with peptide
[3] = system: LAMP reaction; assay: Effect of antimicrobial peptides on the amplification (LAMP) reaction; format: biochemical
Text: The use of peptides with higher concentrations may inhibit the amplification reaction in certain extent in comparison of ideal conditions, e.g. pure water (MQ). This is a drawback of use of peptides. However, not all the peptides have an equal effect.
This effect is explained by secondary property of peptides, which is an anti-inhibitory effect. Meaning, that in additionally to lysis effect, peptides also neutralizing inhibitory substances in real samples.

| Molecule | increase in isothermal amplification efficiency [2] | other results |
| --- | --- | --- |
| Cn1sccc1=O [ProClin950, 2-Methyl-4-isothiazolin-3-one] |  | inhibition of the LAMP reaction [1]: did not inhibit |
| MSI-594 | did not give significant increase |  |
| CC[C@H](C)[C@H](NC(=O)CN)C(=O)NCC(=O)N[C@@H](C)C(=O)N[C@H](C(=O)N[C@@H](CC(C)C)C(=O)N[C@@H](CCCCN)C(=O)N[C@H](C(=O)N[C@@H](CC(C)C)C(=O)N[C@H](C(=O)N[C@H](C(=O)NCC(=O)N[C@@H](CC(C)C)C(=O)N1CCC[C@H]1C(=O)N[C@@H](C)C(=O)N[C@@H](CC(C)C)C(=O)N[C@H](C(=O)N[C@@H](CO)C(=O)N[C@@H](Cc1c[nH]c2ccccc12)C(=O)N[C@H](C(=O)N[C@@H](CCCCN)C(=O)N[C@@H](CCCNC(=N)N)C(=O)N[C@@H](CCCCN)C(=O)N[C@@H](CCCNC(=N)N)C(=O)N[C@@H](CCC(N)=O)C(=O)N[C@@H](CCC(N)=O)C(N)=O)[C@@H](C)CC)[C@@H](C)CC)[C@@H](C)O)[C@@H](C)O)C(C)C)C(C)C [melittin, Melittin] | did not give significant increase |  |
| Cecropin P1 (SWLSKTAKKLENSAKKRISEGIAIAIQGGPR; Cecropin P1; listed as Ascaris suum) |  | inhibitory effect on the amplification reaction ([3]; among current selection of peptides, compared with pure water (MQ)): lowest inhibitory effect; effect on amplification in urinary sample ([3]; in comparison of pure urinary sample): enhancing effect; increase of the target DNA available for the isothermal amplification ([2]; on average): 6 times |
| bombolitin III | did not give significant increase |  |
| MSI-78 | did not give significant increase |  |
